{
  "source": "patent US9663764B2",
  "about": "“Generation of cardiomyocytes from human pluripotent stem cells” (Wisconsin Alumni Research Foundation, priority 2011, dated 2017)",
  "type_in_all_cases": "cell-based, human",
  "key": {"[1]": {"tested_on": "19-9-11 ishcat-2 cells", "experiment": "cTnT+ cell generation with Activin A and BMP4 signaling antagonists during CH induction", "conditions": "dox at 48 hours", "experimental": "(§1) cardiac directed differentiation via small molecules: Cells were dissociated and plated as described in the Activin/BMP4 protocol. When hPS cells maintained on Matrigel® or Synthemax plates achieved confluence, cells were treated with CH in RPMI/B27-insulin for 24 hr (day 0 to day 1). The medium was changed to RPMI/B27-insulin, followed by 2 μg/ml dox treatment at different times between day 1 and day 5 for transgenic cell lines. For genetically unmodified lines, 5 μM IWP2 (Tocris) or IWP4 (Stemgent) was added at day 3 and removed during the day 5 medium change. Cells were maintained in the RPMI/B27 starting from day 7, with the medium changed every 3 days.\nFlow Cytometry: Cells were dissociated into single cells and then fixed with 1% paraformaldehyde for 20 min at room temperature and stained with primary and secondary antibodies in PBS plus 0.1% Triton X-100 and 0.5% BSA. […] Data were collected on a FACSCaliber flow cytometer (Beckton Dickinson) and analyzed using FlowJo.\nTo determine whether canonical Wnt signaling requires TGFβ superfamily signaling to induce cardiogenesis, the inventors quantified cTnT+ cell generation in 19-9-11 ishcat-2 cells when Activin A and BMP4 signaling antagonists were presented during the first 24 hr of cardiomyocyte induction with 12 μM CH. […]"}, "[2]": {"tested_on": "Smad1/5 and Smad2 phosphorylation in 19-9-11 ishcat cells", "experiment": "Smad1/5 and Smad2 phosphorylation, western blot", "conditions": "for Smad1/5 and Smad2 phosphorylation: 100 ng/ml Activin A at day 0 and 5 ng/ml BMP4 at day 1", "experimental": "Western Blot Analysis: Cells were lysed in M-PER Mammalian Protein Extraction Reagent (Pierce) in the presence of Halt Protease and Phosphatase Inhibitor Cocktail (Pierce). Proteins were separated by 10% Tris-Glycine SDS/PAGE (Invitrogen) under denaturing conditions and transferred to a nitrocellulose membrane. After blocking with 5% milk in TBST, the membrane was incubated with primary antibody overnight at 4° C. The membrane was then washed, incubated with an anti-mouse/rabbit peroxidase-conjugated secondary antibody (1:1000, Cell Signaling) at room temperature for 1 hr, and developed by SuperSignal chemiluminescence (Pierce).\nTo determine whether canonical Wnt signaling requires TGFβ superfamily signaling to induce cardiogenesis, the inventors quantified cTnT+ cell generation in 19-9-11 ishcat-2 cells when Activin A and BMP4 signaling antagonists were presented during the first 24 hr of cardiomyocyte induction with 12 μM CH. All samples were treated with dox at 48 hours. […] To further investigate the role of TGFβ superfamily signaling in Wnt pathway-mediated cardiogenesis the inventors assessed Smad1/5 and Smad2 phosphorylation, downstream of BMP4 and Activin A signaling respectively. As expected, substantial Smad1/5 and Smad2 phosphorylation was detected in cells that had been treated with Activin A and BMP4 (FIGS. 9B and 10A)."}, "[3]": {"tested_on": "19-9-11 iPSCs", "experiment": "Cardiac directed differentiation via small molecules on Matrigel, cTnT/MF20 flow cytometry", "conditions": "for cTNT+ or MF20+ cells: 12 μM CH at day 0, then 5 μM Wnt inhibitor at day 3, after 15 days", "experimental": "as §1\n(§2) Flow Cytometry: Cells were dissociated into single cells and then fixed with 1% paraformaldehyde for 20 min at room temperature and stained with primary and secondary antibodies in PBS plus 0.1% Triton X-100 and 0.5% BSA. For the cell proliferation assay, a 17-hour pulse of BrdU was performed to identify dividing cardiomyocytes (Zhang et al., Circ. Res. 104, e30-41 (2009)). Data were collected on a FACSCaliber flow cytometer (Beckton Dickinson) and analyzed using FlowJo.\nWhile shRNA inhibition of β-catenin provides specific and facile temporal regulation of canonical Wnt signaling, this method requires genetic modification of the hPS cell line which limits its potential clinical utility. The inventors next used the mechanistic insight these modified lines provided regarding the sufficiency of canonical Wnt signaling in cardiomyogenesis to develop a completely defined, growth factor free method of efficiently generating cardiomyocytes from unmodified hPS cell lines using small molecules. First, 19-9-11 iPSCs were maintained in mTeSR1 on Matrigel® for five days, and then the medium was switched to RPMI/B27-insulin containing 12 μM CH. IWP4 and IWP2, which prevent palmitylation of Wnt proteins by porcupine thereby blocking Wnt protein secretion and activity (Chen et al., Nat. Chem. Biol. 5:100-107 (2009)), were used to inhibit Wnt signaling. […] Similar to results obtained with the 19-9-11 ishcat-1 cell line, CH treatment of 19-9-11 cells alone only generated 16% cTNT+ or MF20+ cells after 15 days, while adding 5 μM IWP4 or IWP2 at day 3 increased this to 87% cTNT+ or MF20+ cells. […] In order to achieve fully defined culture conditions, Matrigel® was replaced with a defined peptide acrylate surface (Synthemax) during both hPS cell expansion and differentiation. […] Thus, optimization of canonical WNT signaling via stage-specific addition of small molecule agonists and antagonists produces high yields of functional cardiomyocytes in a completely defined, growth factor free culture system."}, "[4]": {"tested_on": "H9 hESCs", "experiment": "Activin A/BMP4 directed cardiac differentiation with GSK3 inhibitor pretreatment, cTnT flow cytometry", "conditions": "for contracting cardiomyocytes generated: Activin A and BMP4 protocol without GSK3 inhibitor, H9 cells", "experimental": "(§3) Cardiac directed differentiation using Activin A and BMP4: hPS cells maintained on Matrigel® in mTeSR1 were dissociated into single cells with Accutase (Invitrogen) at 37° C. for 5 min and then seeded onto a Matrigel®-coated cell culture dish at 100,000 cell/cm^2 in mTeSR1 supplemented with 5 μM ROCK inhibitor (Y-27632, Stemgent) (day −5). Cells were cultured in mTeSR1, changed daily. At day 0, cells were treated with 100 ng/ml Activin A (R&D) in RPMI/B27-insulin. After 24 hr, the medium was changed to RPMI/B27-insulin supplemented with 5 ng/ml BMP4 (R&D) for another 4 days. At day 5, the medium was changed with RPMI/B27-insulin. At day 7 the cells were transferred to RPMI/B27, and medim changed every 3 days. When using GSK3 inhibitors to stimulate differentiation, cells were cultured in mTeSR1 containing BIO or CHIR99021 from day −3 to day 0.\nas §2\nUndifferentiated H9 hESCs were cultured in the presence of 0-8 μM CH for three days prior to EB formation. EBs were cultured in suspension for 4 days before transferring to 0.1% gelatin coated plates. […] The inventors also applied the GSK3 inhibitors CH and BIO to undifferentiated H9 hESCs three days prior to directed differentiation to cardiomyocytes via Activin A and BMP4."}, "[5]": {"tested_on": "IMR90C4 iPSC line", "experiment": "Activin A/BMP4 directed cardiac differentiation with BIO pretreatment, cTnT flow cytometry", "conditions": "three days of BIO pretreatment prior to Activin A and BMP4; day 15", "experimental": "as §3\nFlow Cytometry: Cells were dissociated into single cells and then fixed with 1% paraformaldehyde for 20 min at room temperature and stained with primary and secondary antibodies in PBS plus 0.1% Triton X-100 and 0.5% BSA. For the cell proliferation assay, a 17-hour pulse of BrdU was performed to identify dividing cardiomyocytes (Zhang et al., Circ. Res. 104, e30-41 (2009)). Data were collected on a FACSCaliber flow cytometer (Beckton Dickinson) and analyzed using FlowJo. […]"}, "[6]": {"tested_on": "19-9-11 and IMR90C4 iPSCs", "experiment": "Cardiac directed differentiation via small molecules on Synthemax plates, cTnT/MF20 flow cytometry", "conditions": "12 μM CH at day 0 and 5 μM IWP4 at day 3, day 15", "experimental": "as §1, §2\nWhile shRNA inhibition of β-catenin provides specific and facile temporal regulation of canonical Wnt signaling, this method requires genetic modification of the hPS cell line which limits its potential clinical utility. […]"}},
  "data": [
    {"molecule": "CC(C)Oc1ccc(-c2cnc3c(-c4ccnc5ccccc45)cnn3c2)cc1", "note": "[DMH1]", "values": [
      {"measurement": "percentage of cTnT+ cells", "setting": "[1]; 0.2-1 μM DMH1 with 12 μM CH for first 24 hr, day 15", "value": "decreased the percentage of cTnT+ cells in a concentration-dependent manner"},
      {"measurement": "Smad1/5 phosphorylation", "setting": "[2]; 12 μM CH plus DMH1", "value": "strongly attenuated"}
    ]},
    {"molecule": "Cc1ccc2nc(NC(=O)CSc3nc4c(c(=O)n3-c3ccccc3)SCC4)sc2c1", "note": "[IWP2, N-(6-Methyl-2-benzothiazolyl)-2-[(3,4,6,7-tetrahydro-4-oxo-3-phenylthieno[3,2-d]pyrimidin-2-yl)thio]-acetamide]", "values": [
      {"measurement": "cTNT+ or MF20+ cells", "setting": "[3]", "value": 87, "unit": "%"}
    ]},
    {"molecule": "NC(=O)c1ccc(-c2nc(-c3ccc4c(c3)OCO4)c(-c3ccccn3)[nH]2)cc1", "note": "[SB431542]", "values": [
      {"measurement": "concentrations that completely blocked cardiomyocyte specification", "setting": "[1]; with 12 μM CH for first 24 hr, cTnT+ at day 15", "value": "greater than 2 μM"},
      {"measurement": "Smad2 phosphorylation", "setting": "[2]; 12 μM CH plus SB431542", "value": "diminished"}
    ]},
    {"molecule": "O=C1Nc2cc(Br)ccc2/C1=C1/Nc2ccccc2/C1=N\\O", "note": "[BIO]", "values": [
      {"measurement": "cTNT-labeled cells", "setting": "[4]; GSK3 inhibitor (1 μM) 3 days prior to Activin A and BMP4, day 15, average", "value": 50, "unit": "%"},
      {"measurement": "generation of cTNT-expressing cells", "setting": "[5]", "value": "enhanced generation of cTNT-expressing cells in the IMR90C4 iPSC line in a dose-dependent manner"}
    ]},
    {"molecule": "COc1ccccc1-n1c(SCC(=O)Nc2nc3ccc(C)cc3s2)nc2c(c1=O)SCC2", "note": "[IWP4, 2-(3,4,6,7-tetrahydro-3-(2-methoxyphenyl)-4-oxothieno[3,2-d]pyrimidin-2-ylthio)-N-(6-methylbenzo[d]thiazol-2-yl)acetamide]", "values": [
      {"measurement": "IWP4 concentration giving optimal generation of cardiomyocytes", "setting": "[3]; 12 μM CH at day 0, IWP4 added at day 3", "value": 5, "unit": "µM"},
      {"measurement": "cTNT+ or MF20+ cells", "setting": "[3]", "value": 87, "unit": "%"},
      {"measurement": "cTNT+ or MF20+ cells", "setting": "[6]", "value": "approximately 85%"}
    ]},
    {"molecule": "Activin A: growth factor (R&D) used at 100 ng/ml for directed cardiac differentiation (protein, UniProt P08476 311-426, looked up, Inhibin beta A chain, growth factor (R&D) used at 100 ng/ml for directed cardiac differentiation) Inhibin beta A chain: GLECDGKVNICCKKQFFVSFKDIGWNDWIIAPSGYHANYCEGECPSHIAGTSGSSLSFHSTVINHYRMRGHSPFANLKSCCVPTKLRPMSMLYYDDGQNIIKKDIQNMIVEECGCS", "values": [
      {"measurement": "contracting cardiomyocytes generated", "setting": "[4]", "value": "very few contracting cardiomyocytes"},
      {"measurement": "Smad1/5 and Smad2 phosphorylation", "setting": "[2]", "value": "substantial"}
    ]},
    {"molecule": "BMP4: growth factor (R&D) used at 5 ng/ml for directed cardiac differentiation (protein, UniProt P12644 293-408, looked up) Bone morphogenetic protein 4: SPKHHSQRARKKNKNCRRHSLYVDFSDVGWNDWIVAPPGYQAFYCHGDCPFPLADHLNSTNHAIVQTLVNSVNSSIPKACCVPTELSAISMLYLDEYDKVVLKNYQEMVVEGCGCR", "values": [
      {"measurement": "contracting cardiomyocytes generated", "setting": "[4]", "value": "very few contracting cardiomyocytes"},
      {"measurement": "Smad1/5 and Smad2 phosphorylation", "setting": "[2]", "value": "substantial"}
    ]}
  ]
}
